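Dose response: 5 concentrations. Exposure: 48 h. Format: 96-well plates. Endpoint: linear interpolation; highest concentration if not reached. At the TGI there is no net growth.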
What was measured:
Assay in all cases: NCI-60 cell line screen, 48 h
OVCAR-4 ovarian = test system: OVCAR-4 ovarian
MOLT-4 leukemia = test system: MOLT-4 leukemia
LOX IMVI melanoma = test system: LOX IMVI melanoma
CAKI-1 renal = test system: CAKI-1 renal
HCC-2998 colon = test system: HCC-2998 colon
EKVX NSCLC = test system: EKVX NSCLC
OVCAR-3 ovarian = test system: OVCAR-3 ovarian
HCT-116 colon = test system: HCT-116 colon
786-0 renal = test system: 786-0 renal
SN12C renal = test system: SN12C renal
TK-10 renal = test system: TK-10 renal
HT29 colon = test system: HT29 colon
SNB-75 CNS = test system: SNB-75 CNS
NCI-H226 lung = test system: NCI-H226 lung
SK-MEL-5 melanoma = test system: SK-MEL-5 melanoma
SF-295 CNS = test system: SF-295 CNS
UACC-62 melanoma = test system: UACC-62 melanoma
SNB-19 CNS = test system: SNB-19 CNS
LXFL 529 NSCLC = test system: LXFL 529 NSCLC
MALME-3M melanoma = test system: MALME-3M melanoma
DLD-1 colon = test system: DLD-1 colon
UO-31 renal = test system: UO-31 renal
A498 renal = test system: A498 renal
KM12 colon = test system: KM12 colon
NCI-H460 lung = test system: NCI-H460 lung
NCI-H522 lung = test system: NCI-H522 lung
HOP-18 NSCLC = test system: HOP-18 NSCLC
RXF 393 renal = test system: RXF 393 renal
HOP-62 NSCLC = test system: HOP-62 NSCLC
A549 NSCLC = test system: A549 NSCLC
K-562 leukemia = test system: K-562 leukemia
U251 CNS = test system: U251 CNS
RPMI-8226 leukemia = test system: RPMI-8226 leukemia
DMS 114 small cell lung = test system: DMS 114 small cell lung
HOP-92 NSCLC = test system: HOP-92 NSCLC
SF-539 CNS = test system: SF-539 CNS
IGROV1 ovarian = test system: IGROV1 ovarian
XF 498 CNS = test system: XF 498 CNS
RXF-631 renal = test system: RXF-631 renal
SNB-78 CNS = test system: SNB-78 CNS
DMS 273 small cell lung = test system: DMS 273 small cell lung
SR leukemia = test system: SR leukemia
SW-620 colon = test system: SW-620 colon
SF-268 CNS = test system: SF-268 CNS
M19-MEL melanoma = test system: M19-MEL melanoma
SK-MEL-2 melanoma = test system: SK-MEL-2 melanoma
NCI-H23 lung = test system: NCI-H23 lung
KM20L2 colon = test system: KM20L2 colon
CCRF-CEM leukemia = test system: CCRF-CEM leukemia
OVCAR-8 ovarian = test system: OVCAR-8 ovarian
SK-MEL-28 melanoma = test system: SK-MEL-28 melanoma
UACC-257 melanoma = test system: UACC-257 melanoma
COLO 205 colon = test system: COLO 205 colon
HL-60(TB) leukemia = test system: HL-60(TB) leukemia
M14 melanoma = test system: M14 melanoma
SK-OV-3 ovarian = test system: SK-OV-3 ovarian
OVCAR-5 ovarian = test system: OVCAR-5 ovarian
ACHN renal = test system: ACHN renal

Measured: TGI

COC(=O)C1CCC2(CC1)NC(=O)NC2=O (stereo not drawn)
> 100 µM: all assays above
